This passage reports IC50 and IC90 results from PubChem BioAssay AID449764 (Southern Research Specialized Biocontainment Screening …, 2010).

pIC50: −log10 of the molar value.

For the test, the system named is Mycobacterium tuberculosis H37Rv growth inhibition, no glycerol. The test can be described thus: Mycobacterium tuberculosis H37Rv growth inhibition, no glycerol, confirmatory dose response (AID 449764).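 As to all read-outs here: growth read after 7 days of incubation.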 Particulars: for IC90: measured here: IC90 growth inhibition.

Regarding `COCCN(C(=O)C1CC(=O)N(Cc2ccccc2)C1)c1nc(-c2ccc([N+](=O)[O-])cc2)cs1` (stereo unspecified), the pIC50 was 4.55 and the IC90 was > 100 µM.
In the case of `Cc1nn(-c2ccccc2)c(Cl)c1C(=O)Nc1nnc(C2CCCCC2)s1`, the IC90 is > 50 µM.
With `Cc1cc2c(cc1C)CSC(c1c(O)ccc3ccccc13)SC2`, the pIC50 was 4.21 and the IC90 is > 100 µM.
Consider `OCC1(Cc2cccc(Cl)c2)CCCN(Cc2ccc3cc(F)ccc3n2)C1` (stereo unspecified), for which the pIC50 was 4.42 and the IC90 was 54.6 µM.
For `O=C(NCCN1CCN(c2cccc(Cl)c2)CC1)c1ccc(CSc2nc3ccncc3[nH]2)cc1`, the pIC50 was 4.66 and the IC90 worked out at 32.1 µM.
Regarding `CCOc1ccc(OCCSc2ccc(S(=O)(=O)N3CCN(C)CC3)cn2)cc1`, the pIC50 was 4.59 and the IC90 came to 28.8 µM.
Turning to `Cc1cc2nc(/N=C(\N)NC(=O)C(C)C)nc(C)c2cc1C`, the pIC50 was 4.74 and the IC90 was > 100 µM.
The like results for `C(=N\Nc1ncnc2sc3c(c12)CCC3)/c1cccs1` were, in that order, 4.43 and 54.2 µM.
The like results for `Cc1ccccc1N/N=C/c1c(C)nc2ccccn12` were, in that order, 4.24 and 72.5 µM.
For `CC(=O)c1ccc(NC(=O)c2cc(CC(C)C)on2)cc1`, in that order: 4.92 and 13.8 µM.
As to `COc1ccc(N2CCN(C(=O)c3cc4c(C)nc5ccccc5c4o3)CC2)cc1`, the pIC50 was 4.09 and the IC90 was > 100 µM.
Regarding `CC1CCC(C(C)C)C(OC(=O)Cn2c(-c3ccc(F)cc3)[n+](C)c3ccccc32)C1` (stereo unspecified), the pIC50 was 4.97 and the IC90 worked out at 14.4 µM.
Turning to `CC1CCCC(NC(=O)NC(=O)CCl)C1C` (stereo unspecified), the pIC50 is 5.06 and the IC90 came out at 14.3 µM.
The like results for `CCCSc1nn2c(=O)c3ccccc3nc2s1` were, in that order, 4.83 and 28.1 µM.
Turning to `CC(C)Nc1nc(NC(C)C)nc(N(C)N)n1`, the pIC50 was 4.49 and the IC90 was 47.9 µM.
The like results for `Clc1ccc2c(c1)C(c1ccccc1Cl)=NCc1nnc(N3CCN(CCOc4ccccc4)CC3)n1-2` were, in that order, 4.46 and 46.1 µM.
The like results for `CC(C)(C)NC(=O)[C@@H]1C[C@@H]2CCCC[C@@H]2CN1C[C@@H](O)[C@H](Cc1ccccc1)NC(=O)[C@H](CC(N)=O)NC(=O)c1ccc2ccccc2n1` were, in that order, 4.48 and 52.8 µM.
The like results for `c1ccc(CN2CCC(Nc3nc(-c4ccccc4)nc4ccccc34)CC2)cc1` were, in that order, 4.96 and 16.6 µM.
Take `CCc1ccc(/C(C)=N/Nc2cc(Cl)nc(C)n2)cc1`: the pIC50 was 4.47 and the IC90 is 59.5 µM.
For `Cc1ccc(NC(=O)C2C3/C=C\CCCCC32)cc1C` (stereo unspecified), in that order: 5.53 and 4.49 µM.
The like results for `CCCC[C@@H](CN[C@H](C)CNC)NCC1CCC(C(C)(C)C)CC1` (stereo partly specified) were, in that order, 4.63 and 26.4 µM.
Consider `O=C(NCCC1=CCCCC1)NC12CC3CC(CC(C3)C1)C2`, for which the pIC50 is > 6.70 and the concentration for an effect of 90% (IC90) turned out to be 1.58 µM.
With `COc1ccc(-c2cc3nc(CCl)[nH]c(=O)c3s2)cc1`, the pIC50 is 5.23 and the concentration for an effect of 90% (IC90) was 6.45 µM.
The like results for `CCCCN(C)S(=O)(=O)c1ccc(C(=O)Nc2nnc(-c3ccco3)o2)cc1` were, in that order, 4.75 and 32.7 µM.
For `CCCc1cc(-c2nc(N)ncc2-c2ccc3c(c2)OCCCO3)c(O)cc1OC`, in that order: 4.27 and 81 µM.
Take `O=C(Nc1ccc(OC(F)(F)F)cc1)c1ccc2c(c1)no[n+]2[O-]`: the pIC50 is 6.62 and the IC90 amounted to 0.32 µM.
`Cc1cc(C(=O)COC(=O)C2=COCCO2)c(C)n1-c1cccc(F)c1`: the pIC50 was 5.02 and the IC90 was > 100 µM.
For `CCOc1ncccc1C(=O)OCC(=O)N1CCc2ccccc21`, in that order: 4.59 and > 100 µM.
Regarding `O=c1[nH]c2ccccc2c2oc(CCl)nc12`, the pIC50 was 5.13 and the IC90 turned out to be 22.1 µM.
For `O=C(OCc1ccc([N+](=O)[O-])cc1)c1cc2ccccc2oc1=O`, the pIC50 is 4.92 and the IC90 was > 100 µM.
In the case of `O=C1C2C(C(=O)N1/N=C/c1ccc([N+](=O)[O-])o1)C1C=CC2C12CC2` (stereo unspecified), the pIC50 was 4.49 and the IC90 turned out to be 52.8 µM.
The like results for `Cc1cc([N+](=O)[O-])c2ccccc2[n+]1[O-]` were, in that order, 5.06 and 13.8 µM.
As to `CCN(CC)S(=O)(=O)c1ccc2[nH]cc(C(=O)NCCC3=CCCCC3)c(=O)c2c1`, the pIC50 is 4.04 and the IC90 was > 100 µM.
With `Cc1c(C(=O)Oc2cccc3ccccc23)cnn1-c1ccccc1`, the pIC50 is 4.64 and the 90% effect concentration (IC90) was 26.1 µM.
In the case of `C/C(=N\Nc1ccc(Cl)c(Cl)c1)c1ccc(-n2ccnc2)cc1`, the pIC50 was 4.06 and the IC90 is 95.6 µM.
With `Cc1cc(=O)n2cccc(O)c2n1`, the pIC50 is 4.93 and the IC90 is 21.5 µM.
With `COc1ccc(C2=NC(=O)/C(=C\c3cc(OC)c(OC)c(OC)c3)O2)cc1`, the pIC50 is 4.96 and the IC90 is 16.2 µM.
In the case of `Brc1ccc(N/N=C(/N=Nc2nn[nH]n2)c2ccccc2)cc1`, the pIC50 is 4.84 and the IC90 is 23.3 µM.
For `Cc1ccc2nc(/C(C#N)=C/c3cn[nH]c3-c3ccc(F)cc3)[nH]c2c1`, in that order: 4.72 and 25.4 µM.
For `CCc1ccc2c(c1)C1(C(=O)N2)N2CCCC2C(C(=O)c2ccc3ccccc3c2)C12C(=O)Nc1ccccc12` (stereo unspecified), in that order: 4.62 and 36.2 µM.
The like results for `Cc1cccc(OCc2n(CC(=O)OC3CC(C)CCC3C(C)C)c3ccccc3[n+]2C)c1` (stereo unspecified) were, in that order, 5.06 and 10.4 µM.
As to `Oc1ccc(F)c2cccnc12`, the pIC50 was 5.23 and the IC90 stood at 6.56 µM.
For `O=C1CN(CC(=O)N2CCCCC2)c2ccccc2O1`, in that order: 4.61 and 27.1 µM.
`CCOC(=O)Cn1c(C)c(Br)c(=O)c2cccc(C)c21`: the pIC50 is 4.64 and the concentration for an effect of 90% (IC90) stood at 26.6 µM.
Turning to `COc1cccc2c1C(=O)c1c(O)c3c(c(O)c1C2=O)C[C@@](O)(C(=O)CO)C[C@@H]3O[C@H]1C[C@H](N)[C@@H](O)[C@H](C)O1`, the pIC50 is 5.23 and the IC90 is 6.6 µM.
Turning to `Cc1cc2oc3ccc(NCCCn4ccnc4)cc3c(=O)c2cc1C`, the pIC50 was 4.63 and the IC90 was 25.7 µM.
For `CC(C)(C)Nc1nc(NC(C)(C)C)nc(-n2ccnc2)n1`, in that order: 4.22 and 98.5 µM.
As to `CCOC(=O)c1ccc(Oc2nc(NC(C)(C)C)nc(N(C)C)n2)cc1`, the pIC50 was 4.24 and the IC90 is > 100 µM.
For `CCOC(=O)c1cnc(SC2CCc3ccccc3C2=O)nc1N` (stereo unspecified), in that order: 4.06 and 96.5 µM.
For `CCOCCN1CCN(c2c(CC)c(C)nc3cc(-c4cc(OC)cc(OC)c4)nn23)CC1`, the pIC50 was 4.61 and the IC90 worked out at 38.2 µM.
On to `CCOC(=O)CNC(=O)c1sc2ncnc(N3CCc4ccccc4C3)c2c1C`, for which the pIC50 was 4.10 and the IC90 is 97.7 µM.
The like results for `COc1ccc2cc1Oc1ccc(cc1)C[C@H]1c3c(cc(OC)c4c3Oc3c(ccc5c3[C@H](C2)N(C)CC5)O4)CCN1C` were, in that order, 5.26 and 6.24 µM.
For `O=C(NCc1nnnn1-c1ccc(F)cc1)c1ccc([N+](=O)[O-])o1`, in that order: 4.27 and > 100 µM.
The like results for `CCc1cccc2c(=O)c(C(=O)N3CCOCC3)c[nH]c12` were, in that order, 4.81 and 22.9 µM.
As to `O=C(CNC(=O)c1ccco1)OCc1ccc(C(=O)Oc2ccccc2)cc1`, the negative logarithm of the IC50 (pIC50) is 4.78 and the IC90 came out at 26.6 µM.
For `COc1ccc(COc2cc(-c3cccc(OC)c3)nc3ccc(NC(=O)c4ccc(OC)cc4)cc23)cc1`, in that order: 4.62 and > 100 µM.
The like results for `Cc1cc(/C=C2\SC(=Nc3ccc(F)cc3)NC2=O)c(C)n1-c1ccc(S(N)(=O)=O)cc1` were, in that order, 4.64 and 26.2 µM.
With `CN(C)CCCNC(=O)c1ccc(-c2nc(-c3ccc(Cl)cc3)cs2)cc1`, the pIC50 was 4.58 and the IC90 was found to be 33.8 µM.
The like results for `C/C(CC(=O)Nc1ccc(Cl)cc1C(F)(F)F)=N\NC(N)=S` were, in that order, 4.80 and 20.1 µM.
On to `COc1ccc(-c2csc3nc(-c4ccccc4OC)oc(=O)c23)cc1`, for which the pIC50 was 5.26 and the IC90 came to 22.1 µM.
The like results for `CCC(C)Nc1ccc(NC(C)CC)cc1` (stereo unspecified) were, in that order, 5.64 and 2.97 µM.
On to `COC(=O)c1ccc(Cn2cc(C(F)(F)F)cc([N+](=O)[O-])c2=O)cc1`, for which the pIC50 is 6.20 and the IC90 is > 100 µM.
For `COc1ccc(/C=N/Nc2cc(N3CCCC3)nc(N3CCCC3)n2)cc1`, in that order: 4.73 and 24 µM.
In the case of `COc1ccc(C2CC(=O)C3=C(C2)NC(C)=C(C#N)C3c2ccc(N(C)C)cc2)cc1` (stereo unspecified), the pIC50 was 4.65 and the IC90 came out at 35.6 µM.
Take `CCOc1cc2c3c(c1)C1(C(=O)N3C(C)(C)CC2C)C(C#N)=C(N)N2C(=C1C#N)Nc1ccccc12` (stereo unspecified): the pIC50 is 4.42 and the IC90 was > 100 µM.
The like results for `Cc1ccccc1N1CCN(C(=O)c2ccc(Oc3ccc(C(F)(F)F)cn3)cc2)CC1` were, in that order, 4.52 and 54.6 µM.
For `O=C(Oc1ccccc1)c1ccccc1OS(=O)(=O)c1ccccc1`, in that order: 5.63 and 14.1 µM.
The like results for `O=C(Nc1cccnc1Cl)c1cc(-c2ccco2)on1` were, in that order, 4.42 and > 100 µM.
Consider `CCOC(=O)CCCc1ccc(/C(C)=N/NC(N)=S)cc1`, for which the pIC50 is 5.08 and the IC90 came out at 25 µM.
For `N#Cc1nc(-c2ccc(OCc3ccccc3)cc2)oc1NCCCn1ccnc1`, in that order: 4.43 and 43 µM.
For `CC(C)(C)c1ccc(C(=O)CSc2n[nH]c(=O)[nH]c2=O)cc1`, in that order: 4.78 and 28.6 µM.

What is called pIC50 is the IC50 on a negative log10 scale, so that one unit is a factor of ten. Broadly, the IC90 is the concentration needed for an effect of 90%. A high value points to a need for much substance.
